{"source": "patent US7763273B2", "about": "“Method for reducing methane production emanating from the digestive activities of an animal” (DSM IP Assets B.V., priority 2002, dated 2010)", "test_system": "strained rumen fluids", "experiment": "In vitro incubation of sheep rumen fluid with ground diet: formation of methane and VFA", "assay_type": "cell-based", "parameters": "Methane production / Total VFA: unit not given here", "settings": "for Effect on the formation of VFA (in words) / Effect on the formation of methane (in words): in vitro, versus control", "description": "The efficacy of some essential oil compounds obtainable from plants was tested regarding their influence on the formation of methane and VFA in an in vitro system.\nAccording to the test 200 mg of a ground diet, containing 50% hay, 30% barley, 9.5% molasses, 10% fishmeal and 0.5% vitamins, was added to wheaton bottles. To a triplicate of bottles containing the diet, 0.6 ml of a dissolution of one of the essential oil compounds mentioned in the table below, into propylene glycol was added to each bottle.\nThree sheep were fed on the ground diet and strained rumen fluids in amounts of 500 ml were mixed with 1000 ml of Colemans Simplex buffer. The buffer had the following composition.\n30 ml of the combined rumen fluid and the buffer were then introduced into the bottles, and their contents were incubated under CO2 at 39° C. for 24 hours. The methane production and the total amount of VFA was then measured. […]", "key": {"[1]": {"settings": "0.6 ml dissolution in propylene glycol per bottle, 200 mg diet, 30 ml rumen fluid/buffer, under CO2, 39° C., 24 hours"}}}
{"molecule": "Vanilla", "values": [{"measurement": "Methane production", "setting": "[1]", "result": 1055}, {"measurement": "Total VFA", "setting": "[1]", "result": 1300}, {"measurement": "Effect on the formation of VFA (in words)", "result": "promoting effect"}, {"measurement": "Effect on the formation of methane (in words)", "result": "methane-reducing effect"}]}
{"molecule": "c1ccc2ncccc2c1", "note": "[Quinoline]", "values": [{"measurement": "Effect on the formation of VFA (in words)", "result": "promoting effect"}, {"measurement": "Effect on the formation of methane (in words)", "result": "methane-reducing effect"}]}
{"molecule": "Cc1ccc(C(C)C)c(O)c1", "note": "[Thymol]", "values": [{"measurement": "Effect on the formation of VFA (in words)", "result": "notable reducing effect"}, {"measurement": "Effect on the formation of methane (in words)", "result": "strong methane-reducing effect"}]}
